Measurements: patent publication US20240116877A1, “KIT KINASE INHIBITORS AND METHODS OF USE THEREOF” (Deciphera Pharmaceuticals, LLC, priority 2021, published 2024)
Read-outs that look alike come from different tables or passages of the source.

Key:
c-KIT kinase (uKIT) = c-KIT kinase (uKIT) (Homo sapiens (Human), UniProt P10721); test: Biochemical Assay for uKIT (coupled pyruvate kinase/lactate dehydrogenase assay); settings: Inhibition of biochemical activity of uKIT kinase; 1 mM ATP
Summary of the method: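 IC50 from percent inhibition of reaction rate over 2-3 h, relative to no-compound and known-inhibitor controls. KIT enzyme (16 nM or 4.36 nM, two sequences) ran with 1 mM ATP and 0.7 mg/mL PE4Y in Tris pH 7.5, 30° C; ATP turnover coupled to NADH loss at 340 nm.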

Ba/F3 KIT mutant cells = test: Ba/F3 mutant KIT Cell Proliferation Assays (resazurin); assay type: cell-based; settings: Mus musculus, BaF3
Summary of the method: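 IC50 values come from resazurin fluorescence (ex 540, em 600) after 5 h dye exposure, added as a 440 μM solution. Cells were IL-3-independent Ba/F3 expressing mutant KIT from a lentiviral vector, puromycin-selected.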

GIST 430 cells = test: GIST 430 Cell Proliferation Assay (resazurin); assay type: cell-based; settings: Homo sapiens; GIST430 cell proliferation
Summary of the method: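 Five thousand cells per well were exposed to serially diluted compound in complete growth medium for 115 h at 37 degrees Celsius, 5% CO2. Resazurin was then added for a further 5 h, fluorescence read at 540 nm excitation/600 nm emission, and IC50 values calculated.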

[1] = Ba/F3 KIT AYdup mutant cell proliferation, read-out: AYdup IC50
[2] = Ba/F3 KIT AYdup-D816G mutant cell proliferation, read-out: AYdup-D816G IC50
[3] = Ba/F3 KIT AYdup-V654A mutant cell proliferation, read-out: AYdup-V654A IC50
[4] = Ba/F3 KIT exon11del-V654A mutant cell proliferation, read-out: exon11del-V654A IC50
[5] = Ba/F3 KIT exon11del-Y823D mutant cell proliferation, read-out: exon11del-Y823D IC50

Chain of c-KIT kinase (uKIT) (P10721 other isoform, or with tags, fused parts or gaps): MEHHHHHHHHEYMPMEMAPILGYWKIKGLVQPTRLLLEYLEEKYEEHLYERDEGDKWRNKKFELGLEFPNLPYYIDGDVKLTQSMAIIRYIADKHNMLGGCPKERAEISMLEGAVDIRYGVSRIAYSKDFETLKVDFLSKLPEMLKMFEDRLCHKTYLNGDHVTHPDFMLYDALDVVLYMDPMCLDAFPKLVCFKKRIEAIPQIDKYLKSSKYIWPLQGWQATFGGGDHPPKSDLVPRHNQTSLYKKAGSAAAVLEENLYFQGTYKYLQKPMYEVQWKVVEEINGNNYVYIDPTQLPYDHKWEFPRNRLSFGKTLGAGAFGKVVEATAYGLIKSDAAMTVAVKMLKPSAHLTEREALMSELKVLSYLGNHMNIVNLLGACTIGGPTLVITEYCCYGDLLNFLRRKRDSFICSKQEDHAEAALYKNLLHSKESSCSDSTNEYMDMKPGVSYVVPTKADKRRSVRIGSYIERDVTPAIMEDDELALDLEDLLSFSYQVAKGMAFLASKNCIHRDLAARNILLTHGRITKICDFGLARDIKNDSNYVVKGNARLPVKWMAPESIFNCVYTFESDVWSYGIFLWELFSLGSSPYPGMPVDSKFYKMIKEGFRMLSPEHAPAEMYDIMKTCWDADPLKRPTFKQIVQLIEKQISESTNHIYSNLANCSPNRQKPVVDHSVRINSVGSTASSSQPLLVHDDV

Compound	IC50 (c-KIT kinase (uKIT)) [nM]	IC50 (Ba/F3 KIT mutant cells; [1]) [nM]	IC50 (Ba/F3 KIT mutant cells; [2]) [nM]	IC50 (Ba/F3 KIT mutant cells; [3]) [nM]	IC50 (Ba/F3 KIT mutant cells; [4]) [nM]	IC50 (Ba/F3 KIT mutant cells; [5]) [nM]	IC50 (GIST 430 cells) [nM]
COCCOc1cc(F)c2c(Nc3ccc(NC(=O)CC4CCC(C)(C)CC4)cc3)ncnc2c1 [Example 69]	≤ 10	10 to 100	≤ 10	10 to 100	10 to 100	10 to 100	≤ 10
COCCOc1cc(F)c2c(Nc3ccc(NC(=O)NCCC(C)(C)C#N)cc3F)ncnc2c1 [Example 70]	> 1000	–	–	100 to 1000	100 to 1000	100 to 1000	> 1000
COCCOc1cc(F)c2c(Nc3ccc(NC(=O)C4(C(=O)NCC(C)C)CC4)cc3)ncnc2c1 [Example 71]	10 to 100	–	–	100 to 1000	10 to 100	> 1000	100 to 1000
COCCOc1cc(F)c2c(Nc3ccc(NC(=O)C4(C(=O)N(C)CC(C)C)CC4)cc3)ncnc2c1 [Example 72]	> 1000	–	–	> 1000	100 to 1000	–	100 to 1000
COCCOc1cc(F)c2c(Nc3ccc(NC(=O)CC(=O)N(C)C(C)C)cc3)ncnc2c1 [Example 74]	10 to 100	–	–	10 to 100	10 to 100	100 to 1000	10 to 100
COCCOc1cc(F)c2c(Nc3ccc(NC(=O)C4(C(=O)NCCC(C)(C)F)CC4)cc3)ncnc2c1 [Example 75]	10 to 100	–	–	100 to 1000	10 to 100	> 1000	100 to 1000
COCCOc1cc(F)c2c(Nc3ccc(NC(=O)CNC(=O)CC(C)C)cc3)ncnc2c1 [Example 76]	10 to 100	–	–	10 to 100	≤ 10	100 to 1000	≤ 10
COCCOc1cc(F)c2c(Nc3ccc(NC(=O)CC(=O)NCC4CC4)cc3)ncnc2c1 [Example 77]	10 to 100	–	–	10 to 100	≤ 10	100 to 1000	10 to 100
COCCOc1cc(F)c2c(Nc3ccc(NC(=O)CC(=O)NCC4CCOCC4)cc3)ncnc2c1 [Example 78]	100 to 1000	–	–	100 to 1000	10 to 100	> 1000	100 to 1000
COCCOc1cc(F)c2c(Nc3ccc(NC(=O)CC(=O)NCC4CCCC4)cc3)ncnc2c1 [Example 79]	10 to 100	–	–	10 to 100	10 to 100	100 to 1000	10 to 100
COCCOc1cc(F)c2c(Nc3ccc(NC(=O)CC(=O)NCC(C)C)cc3)ncnc2c1 [Example 81]	10 to 100	–	–	10 to 100	10 to 100	> 1000	10 to 100
COCCOc1cc(F)c2c(Nc3ccc(NC(=O)CC(=O)NCCC(C)(C)C)cc3)ncnc2c1 [Example 82]	≤ 10	–	–	10 to 100	≤ 10	100 to 1000	10 to 100
COCCOc1cc(F)c2c(Nc3ccc(NC(=O)CC(=O)NCCN(C)C)cc3)ncnc2c1 [Example 83]	> 1000	–	–	–	> 1000	–	> 1000
COCCOc1cc(F)c2c(Nc3ccc(NC(=O)CC(=O)NCCN4CCOCC4)cc3)ncnc2c1 [Example 84]	> 1000	–	–	–	100 to 1000	–	> 1000
COCCOc1cc(F)c2c(Nc3ccc(NC(=O)CC(=O)NCC4(C)CC4)cc3)ncnc2c1 [Example 85]	≤ 10	–	–	10 to 100	≤ 10	100 to 1000	≤ 10
COCCOc1cc(F)c2c(Nc3ccc(NC(=O)CC(=O)NCC(C)(C)COC)cc3)ncnc2c1 [Example 86]	10 to 100	–	–	10 to 100	10 to 100	> 1000	10 to 100
COCCOc1cc(F)c2c(Nc3ccc(NC(=O)CC(=O)NCC(C)(C)C(F)(F)F)cc3)ncnc2c1 [Example 88]	10 to 100	≤ 10	≤ 10	10 to 100	≤ 10	10 to 100	≤ 10
COCCOc1cc(F)c2c(Nc3ccc(NC(=O)CC(=O)NCC(C)(C)F)cc3)ncnc2c1 [Example 89]	10 to 100	–	–	10 to 100	10 to 100	100 to 1000	10 to 100
COCCOc1cc(F)c2c(Nc3ccc(NC(=O)CC(=O)NCC4CCC4)cc3)ncnc2c1 [Example 90]	≤ 10	–	–	> 1000	≤ 10	100 to 1000	10 to 100
COCCOc1cc(F)c2c(Nc3ccc(NC(=O)CC(=O)NCC4CCCCC4)cc3)ncnc2c1 [Example 91]	≤ 10	–	–	10 to 100	10 to 100	100 to 1000	10 to 100
COCCOc1cc(F)c2c(Nc3ccc(NC(=O)CC(=O)NC4CCCC4)cc3)ncnc2c1 [Example 92]	≤ 10	≤ 10	10 to 100	10 to 100	≤ 10	10 to 100	≤ 10
COCCOc1cc(F)c2c(Nc3ccc(NC(=O)CC(=O)NC4COC4)cc3)ncnc2c1 [Example 93]	100 to 1000	–	–	> 1000	100 to 1000	–	> 1000
COCCOc1cc(F)c2c(Nc3ccc(NC(=O)CC(=O)NC4CC4)cc3)ncnc2c1 [Example 94]	100 to 1000	–	–	100 to 1000	100 to 1000	–	100 to 1000
COCCOc1cc(F)c2c(Nc3ccc(NC(=O)CC(=O)NC4CCC4)cc3)ncnc2c1 [Example 95]	≤ 10	≤ 10	10 to 100	10 to 100	≤ 10	10 to 100	≤ 10
COCCOc1cc(F)c2c(Nc3ccc(NC(=O)CC(=O)NC(C)C)cc3)ncnc2c1 [Example 96]	10 to 100	–	–	10 to 100	10 to 100	> 1000	10 to 100
